The text below walks through data of BindingDB's records for doi:10.1021/acsmedchemlett.6b00299 (University of Michigan, 2016).

This experiment in a line: Inhibition of human serum factor D-mediated complement activation in rabbit erythrocytes assessed as reduction in rabbit erythrocyte hemolysis preincubated with human serum for 15 mins followed by addition of rabbit erythrocytes and Mg-EGTA measured after 30 mins.

In the case of `NC(=O)c1nn(CC(=O)N2CCS[C@H]2C(=O)Nc2cccc(Br)n2)c2ncccc12`, the concentration for half-maximal inhibition (IC50) amounted to 205 nM.

Turning to `NC(=O)c1nn(CC(=O)N2[C@@H]3C[C@@H]3C[C@H]2C(=O)Nc2cccc(Br)n2)c2ncccc12`, the IC50 came out at 47 nM.

By IC50 is commonly meant the point on the concentration scale where inhibition reaches its midpoint.
